Experimental data: the NIST ThermoML archive (doi:10.1021/je034177v)

Experiment: xn = mol fraction of the nth substance listed
Details: 101 kPa, Liquid; for speed of sound: Pulse-echo method; for mass density: Vibrating tube method

ClCCCCCCCl [1,6-dichlorohexane] + CCCCCCCCCCCC
Details | mass density [kg/m3] | speed of sound [m/s]
278.15 K, x1 = 0.0498 | 769.76 | 1355
278.15 K, x1 = 0.1003 | 780.41 | 1353.3
278.15 K, x1 = 0.1497 | 791.41 | 1352
278.15 K, x1 = 0.2527 | 815.84 | 1350.4
278.15 K, x1 = 0.4017 | 855.12 | 1350.4
278.15 K, x1 = 0.502 | 884.56 | 1351.9
278.15 K, x1 = 0.6 | 916.3 | 1355.1
278.15 K, x1 = 0.7011 | 952.18 | 1360.1
278.15 K, x1 = 0.7986 | 990.33 | 1366.8
278.15 K, x1 = 0.8998 | 1034.17 | 1376.1
278.15 K, x1 = 0.9493 | 1057.53 | 1381.5
278.15 K, x1 = 0.9691 | 1067.22 | 1383.7
278.15 K, x1 = 1 | 1082.7 | 1387.4
283.15 K, x1 = 0.0498 | 766.11 | 1335.5
283.15 K, x1 = 0.1003 | 776.72 | 1333.9
283.15 K, x1 = 0.1497 | 787.68 | 1332.7
283.15 K, x1 = 0.2527 | 812 | 1331.2
283.15 K, x1 = 0.4017 | 851.13 | 1331.4
283.15 K, x1 = 0.502 | 880.48 | 1333.3
283.15 K, x1 = 0.6 | 912.1 | 1336.7
283.15 K, x1 = 0.7011 | 947.86 | 1342
283.15 K, x1 = 0.7986 | 985.89 | 1348.9
283.15 K, x1 = 0.8998 | 1029.59 | 1358.4
283.15 K, x1 = 0.9493 | 1052.88 | 1364
283.15 K, x1 = 0.9691 | 1062.53 | 1366.2
283.15 K, x1 = 1 | 1077.97 | 1370
288.15 K, x1 = 0.0498 | 762.46 | 1315.7
288.15 K, x1 = 0.1003 | 773.04 | 1314.3
288.15 K, x1 = 0.1497 | 783.94 | 1313.2
288.15 K, x1 = 0.2527 | 808.17 | 1311.8
288.15 K, x1 = 0.4017 | 847.16 | 1312.4
288.15 K, x1 = 0.502 | 876.39 | 1314.5
288.15 K, x1 = 0.6 | 907.89 | 1318.1
288.15 K, x1 = 0.7011 | 943.53 | 1323.6
288.15 K, x1 = 0.7986 | 981.42 | 1330.7
288.15 K, x1 = 0.8998 | 1024.98 | 1340.4
288.15 K, x1 = 0.9493 | 1048.19 | 1346.1
288.15 K, x1 = 0.9691 | 1057.82 | 1348.4
288.15 K, x1 = 1 | 1073.22 | 1352.3
293.15 K, x1 = 0.0498 | 758.82 | 1296.3
293.15 K, x1 = 0.1003 | 769.35 | 1294.9
293.15 K, x1 = 0.1497 | 780.2 | 1293.9
293.15 K, x1 = 0.2527 | 804.33 | 1292.7
293.15 K, x1 = 0.4017 | 843.16 | 1293.5
293.15 K, x1 = 0.502 | 872.29 | 1295.9
293.15 K, x1 = 0.6 | 903.68 | 1299.7
293.15 K, x1 = 0.7011 | 939.19 | 1305.4
293.15 K, x1 = 0.7986 | 976.96 | 1312.8
293.15 K, x1 = 0.8998 | 1020.39 | 1322.7
293.15 K, x1 = 0.9493 | 1043.52 | 1328.4
293.15 K, x1 = 0.9691 | 1053.11 | 1330.9
293.15 K, x1 = 1 | 1068.47 | 1334.8
298.15 K, x1 = 0.0498 | 755.16 | 1276.8
298.15 K, x1 = 0.1003 | 765.66 | 1275.5
298.15 K, x1 = 0.1497 | 776.45 | 1274.6
298.15 K, x1 = 0.2527 | 800.48 | 1273.7
298.15 K, x1 = 0.4017 | 839.16 | 1274.7
298.15 K, x1 = 0.502 | 868.18 | 1277.3
298.15 K, x1 = 0.6 | 899.46 | 1281.3
298.15 K, x1 = 0.7011 | 934.87 | 1287.3
298.15 K, x1 = 0.7986 | 972.49 | 1294.8
298.15 K, x1 = 0.8998 | 1015.8 | 1304.9
298.15 K, x1 = 0.9493 | 1038.85 | 1310.8
298.15 K, x1 = 0.9691 | 1048.42 | 1313.2
298.15 K, x1 = 1 | 1063.74 | 1317.3
303.15 K, x1 = 0.0498 | 751.5 | 1257.6
303.15 K, x1 = 0.1003 | 761.96 | 1256.4
303.15 K, x1 = 0.1497 | 772.7 | 1255.5
303.15 K, x1 = 0.2527 | 796.64 | 1254.7
303.15 K, x1 = 0.4017 | 835.16 | 1256.1
303.15 K, x1 = 0.502 | 864.08 | 1258.8
303.15 K, x1 = 0.6 | 895.24 | 1263.1
303.15 K, x1 = 0.7011 | 930.52 | 1269.2
303.15 K, x1 = 0.7986 | 968.02 | 1277
303.15 K, x1 = 0.8998 | 1011.2 | 1287.3
303.15 K, x1 = 0.9493 | 1034.18 | 1293.3
303.15 K, x1 = 0.9691 | 1043.71 | 1295.8
303.15 K, x1 = 1 | 1059 | 1299.9
308.15 K, x1 = 0.0498 | 747.81 | 1238.5
308.15 K, x1 = 0.1003 | 758.26 | 1237.4
308.15 K, x1 = 0.1497 | 768.93 | 1236.6
308.15 K, x1 = 0.2527 | 792.76 | 1236
308.15 K, x1 = 0.4017 | 831.14 | 1237.6
308.15 K, x1 = 0.502 | 859.96 | 1240.5
308.15 K, x1 = 0.6 | 891.01 | 1245
308.15 K, x1 = 0.7011 | 926.17 | 1251.3
308.15 K, x1 = 0.7986 | 963.55 | 1259.3
308.15 K, x1 = 0.8998 | 1006.61 | 1269.8
308.15 K, x1 = 0.9493 | 1029.52 | 1276
308.15 K, x1 = 0.9691 | 1039 | 1278.5
308.15 K, x1 = 1 | 1054.25 | 1282.7
313.15 K, x1 = 0.0498 | 744.13 | 1219.6
313.15 K, x1 = 0.1003 | 754.53 | 1218.5
313.15 K, x1 = 0.1497 | 765.15 | 1217.9
313.15 K, x1 = 0.2527 | 788.89 | 1217.5
313.15 K, x1 = 0.4017 | 827.13 | 1219.3
313.15 K, x1 = 0.502 | 855.84 | 1222.4
313.15 K, x1 = 0.6 | 886.78 | 1227
313.15 K, x1 = 0.7011 | 921.82 | 1233.6
313.15 K, x1 = 0.7986 | 959.07 | 1241.8
313.15 K, x1 = 0.8998 | 1002 | 1252.5
313.15 K, x1 = 0.9493 | 1024.85 | 1258.8
313.15 K, x1 = 0.9691 | 1034.3 | 1261.3
313.15 K, x1 = 1 | 1049.5 | 1265.7
318.15 K, x1 = 0.0498 | 740.46 | 1200.9
318.15 K, x1 = 0.1003 | 750.82 | 1199.9
318.15 K, x1 = 0.1497 | 761.37 | 1199.3
318.15 K, x1 = 0.2527 | 785.03 | 1199
318.15 K, x1 = 0.4017 | 823.12 | 1201.2
318.15 K, x1 = 0.502 | 851.72 | 1204.4
318.15 K, x1 = 0.6 | 882.55 | 1209.2
318.15 K, x1 = 0.7011 | 917.48 | 1216
318.15 K, x1 = 0.7986 | 954.61 | 1224.3
318.15 K, x1 = 0.8998 | 997.44 | 1235.3
318.15 K, x1 = 0.9493 | 1020.2 | 1241.7
318.15 K, x1 = 0.9691 | 1029.61 | 1244.3
318.15 K, x1 = 1 | 1044.78 | 1248.7
323.15 K, x1 = 0.0498 | 736.76 | 1182.4
323.15 K, x1 = 0.1003 | 747.09 | 1181.4
323.15 K, x1 = 0.1497 | 757.6 | 1180.9
323.15 K, x1 = 0.2527 | 781.15 | 1180.8
323.15 K, x1 = 0.4017 | 819.09 | 1183.1
323.15 K, x1 = 0.502 | 847.59 | 1186.5
323.15 K, x1 = 0.6 | 878.32 | 1191.6
323.15 K, x1 = 0.7011 | 913.12 | 1198.5
323.15 K, x1 = 0.7986 | 950.13 | 1207
323.15 K, x1 = 0.8998 | 992.83 | 1218.2
323.15 K, x1 = 0.9493 | 1015.52 | 1224.7
323.15 K, x1 = 0.9691 | 1024.9 | 1227.4
323.15 K, x1 = 1 | 1040.03 | 1231.8
328.15 K, x1 = 0.0498 | 733.07 | 1163.9
328.15 K, x1 = 0.1003 | 743.36 | 1163
328.15 K, x1 = 0.1497 | 753.83 | 1162.6
328.15 K, x1 = 0.2527 | 777.28 | 1162.6
328.15 K, x1 = 0.4017 | 815.09 | 1165.2
328.15 K, x1 = 0.502 | 843.49 | 1168.8
328.15 K, x1 = 0.6 | 874.11 | 1174
328.15 K, x1 = 0.7011 | 908.81 | 1181.1
328.15 K, x1 = 0.7986 | 945.71 | 1189.9
328.15 K, x1 = 0.8998 | 988.3 | 1201.2
328.15 K, x1 = 0.9493 | 1010.92 | 1207.8
328.15 K, x1 = 0.9691 | 1020.27 | 1210.5
328.15 K, x1 = 1 | 1035.37 | 1215.1
